Data reported in US9375497B2, “[F-18]-labeled L-glutamic acid, [F-18]-labeled L-glutamine, derivatives thereof and use thereof and processes for their preparation” (BAYER SCHERING PHARMA AKTIENGESELLSCHAFT, priority 2006, dated 2016).

Tested on: murine F9 teratocarcinoma model in NMRI nude mice
Test: Tumor enrichment and tissue distribution, F9 teratocarcinoma model
Conditions: for Tumor/tissue quotient, Blood / Tumor/tissue quotient, Brain / Tumor/tissue quotient, Fat / Tumor/tissue quotient, Heart / Tumor/tissue quotient, Intestine / Tumor/tissue quotient, Kidney / Tumor/tissue quotient, Liver / Tumor/tissue quotient, Lung / Tumor/tissue quotient, Muscle / Tumor/tissue quotient, Ovary / Tumor/tissue quotient, Skin / Tumor/tissue quotient, Spleen / Tumor/tissue quotient, Stomach / Tumor/tissue quotient, Uterus: single i.v.; for Tissue uptake, Blood / Tissue uptake, Brain / Tissue uptake, Fat / Tissue uptake, Heart / Tissue uptake, Intestine / Tissue uptake, Kidney / Tissue uptake, Liver / Tissue uptake, Lung / Tissue uptake, Muscle / Tissue uptake, Ovary / Tissue uptake, Skin / Tissue uptake, Spleen / Tissue uptake, Stomach / Tissue uptake, Tumor / Tissue uptake, Uterus: single i.v. 370 kBq
Description: For the evaluation of the tumor enrichment and the tissue distribution in experimental animals, [^18F]-4-glutamic acid was tested in a murine F9 teratocarcinoma model in NMRI nude mice and a murine B16F1 melanoma model in C57BI6 mice.
For this, 1×10^6 cells (F9) or 5×10^5 cells (B16F1) respectively were suspended in 100 μl of phosphate-buffered physiological saline solution and inoculated subcutaneously into the right, rear flank of the corresponding experimental animal species (NMRI for F9 and 057-BI6 for B16F1) (Berndorff et al. Clin. Cancer Res. 2005, 11, 2005). […] [^18F]-4-Glutamic acid (370 kBq, in 100 μl of physiological saline solution) was administered intravenously to the tail vein. […]

SMILES: NC(CC([18F])C(=O)O)C(=O)O (centres unmarked) [[^18F]4-glutamic acid, 4-[F-18]fluoroglutamic acid]
- Tumor/tissue quotient, Blood (0.25 h (times as Table 1)): 1.14
- Tumor/tissue quotient, Brain (0.25 h (times as Table 1)): 5.6
- Tumor/tissue quotient, Fat (0.25 h (times as Table 1)): 5.85
- Tumor/tissue quotient, Heart (0.25 h (times as Table 1)): 1.01
- Tumor/tissue quotient, Intestine (0.25 h (times as Table 1)): 1.26
- Tumor/tissue quotient, Kidney (0.25 h (times as Table 1)): 0.4
- Tumor/tissue quotient, Liver (0.25 h (times as Table 1)): 0.86
- Tumor/tissue quotient, Lung (0.25 h (times as Table 1)): 0.57
- Tumor/tissue quotient, Muscle (0.25 h (times as Table 1)): 1.67
- Tumor/tissue quotient, Ovary (0.25 h (times as Table 1)): 2.43
- Tumor/tissue quotient, Skin (0.25 h (times as Table 1)): 1.25
- Tumor/tissue quotient, Spleen (0.25 h (times as Table 1)): 1.12
- Tumor/tissue quotient, Stomach (0.25 h (times as Table 1)): 1.12
- Tumor/tissue quotient, Uterus (0.25 h (times as Table 1)): 1.18
- Tissue uptake, Blood (0.25 h): 2.51 % dose/g
- Tissue uptake, Brain (0.25 h): 0.52 % dose/g
- Tissue uptake, Fat (0.25 h): 0.85 % dose/g
- Tissue uptake, Heart (0.25 h): 2.86 % dose/g
- Tissue uptake, Intestine (0.25 h): 2.28 % dose/g
- Tissue uptake, Kidney (0.25 h): 7.24 % dose/g
- Tissue uptake, Liver (0.25 h): 3.37 % dose/g
- Tissue uptake, Lung (0.25 h): 5.08 % dose/g
- Tissue uptake, Muscle (0.25 h): 1.72 % dose/g
- Tissue uptake, Ovary (0.25 h): 1.34 % dose/g
- Tissue uptake, Skin (0.25 h): 2.28 % dose/g
- Tissue uptake, Spleen (0.25 h): 2.56 % dose/g
- Tissue uptake, Stomach (0.25 h): 2.56 % dose/g
- Tissue uptake, Tumor (0.25 h): 2.90 % dose/g
- Tissue uptake, Uterus (0.25 h): 2.54 % dose/g
- Tumor/tissue quotient, Blood (1.0 h (times as Table 1)): 3.46
- Tumor/tissue quotient, Brain (1.0 h (times as Table 1)): 4.2
- Tumor/tissue quotient, Fat (1.0 h (times as Table 1)): 7.37
- Tumor/tissue quotient, Heart (1.0 h (times as Table 1)): 2.73
- Tumor/tissue quotient, Intestine (1.0 h (times as Table 1)): 0.97
- Tumor/tissue quotient, Kidney (1.0 h (times as Table 1)): 1.38
- Tumor/tissue quotient, Liver (1.0 h (times as Table 1)): 3.48
- Tumor/tissue quotient, Lung (1.0 h (times as Table 1)): 1.34
- Tumor/tissue quotient, Muscle (1.0 h (times as Table 1)): 2.51
- Tumor/tissue quotient, Ovary (1.0 h (times as Table 1)): 5.05
- Tumor/tissue quotient, Skin (1.0 h (times as Table 1)): 3.4
- Tumor/tissue quotient, Spleen (1.0 h (times as Table 1)): 3.22
- Tumor/tissue quotient, Stomach (1.0 h (times as Table 1)): 2.45
- Tumor/tissue quotient, Uterus (1.0 h (times as Table 1)): 2.59
- Tissue uptake, Blood (1.0 h): 0.51 % dose/g
- Tissue uptake, Brain (1.0 h): 0.43 % dose/g
- Tissue uptake, Fat (1.0 h): 0.26 % dose/g
- Tissue uptake, Heart (1.0 h): 0.64 % dose/g
- Tissue uptake, Intestine (1.0 h): 1.83 % dose/g
- Tissue uptake, Kidney (1.0 h): 1.30 % dose/g
- Tissue uptake, Liver (1.0 h): 0.50 % dose/g
- Tissue uptake, Lung (1.0 h): 1.32 % dose/g
- Tissue uptake, Muscle (1.0 h): 0.70 % dose/g
- Tissue uptake, Ovary (1.0 h): 0.41 % dose/g
- Tissue uptake, Skin (1.0 h): 0.53 % dose/g
- Tissue uptake, Spleen (1.0 h): 0.54 % dose/g
- Tissue uptake, Stomach (1.0 h): 1.26 % dose/g
- Tissue uptake, Tumor (1.0 h): 1.75 % dose/g
- Tissue uptake, Uterus (1.0 h): 0.72 % dose/g
- Tumor/tissue quotient, Blood (2.0 h (times as Table 1)): 9.06
- Tumor/tissue quotient, Brain (2.0 h (times as Table 1)): 7.06
- Tumor/tissue quotient, Fat (2.0 h (times as Table 1)): 23.67
- Tumor/tissue quotient, Heart (2.0 h (times as Table 1)): 9.22
- Tumor/tissue quotient, Intestine (2.0 h (times as Table 1)): 1.54
- Tumor/tissue quotient, Kidney (2.0 h (times as Table 1)): 5.22
- Tumor/tissue quotient, Liver (2.0 h (times as Table 1)): 9.23
- Tumor/tissue quotient, Lung (2.0 h (times as Table 1)): 4.09
- Tumor/tissue quotient, Muscle (2.0 h (times as Table 1)): 9.5
- Tumor/tissue quotient, Ovary (2.0 h (times as Table 1)): 17.74
- Tumor/tissue quotient, Skin (2.0 h (times as Table 1)): 9.4
- Tumor/tissue quotient, Spleen (2.0 h (times as Table 1)): 18
- Tumor/tissue quotient, Stomach (2.0 h (times as Table 1)): 6.85
- Tumor/tissue quotient, Uterus (2.0 h (times as Table 1)): 6.96
- Tissue uptake, Blood (2.0 h): 0.21 % dose/g
- Tissue uptake, Brain (2.0 h): 0.27 % dose/g
- Tissue uptake, Fat (2.0 h): 0.09 % dose/g
- Tissue uptake, Heart (2.0 h): 0.21 % dose/g
- Tissue uptake, Intestine (2.0 h): 1.21 % dose/g
- Tissue uptake, Kidney (2.0 h): 0.37 % dose/g
- Tissue uptake, Liver (2.0 h): 0.20 % dose/g
- Tissue uptake, Lung (2.0 h): 0.48 % dose/g
- Tissue uptake, Muscle (2.0 h): 0.42 % dose/g
- Tissue uptake, Ovary (2.0 h): 0.12 % dose/g
- Tissue uptake, Skin (2.0 h): 0.21 % dose/g
- Tissue uptake, Spleen (2.0 h): 0.16 % dose/g
- Tissue uptake, Stomach (2.0 h): 0.33 % dose/g
- Tissue uptake, Tumor (2.0 h): 1.87 % dose/g
- Tissue uptake, Uterus (2.0 h): 0.32 % dose/g
- tumor enrichment (F9 teratocarcinoma, 1 h after intravenous administration): 1.75 % ID/g
- maximal tumor enrichment (F9 teratocarcinoma, after intravenous injection (15 min)): 2.90 % ID/g
